Reference: patent US20240024488A1, “COMPOUNDS AND USES THEREOF” (Foghorn Therapeutics Inc., priority 2020, published 2024)

Columns and labels:
[1] = target: T1, HiBit-BRG1 fusion protein (Homo sapiens, UniProt P51532); experiment: HiBiT-BRG1 cell-based degradation assay (Nano-Glo HiBiT Lytic Detection, 24 h); settings: HeLa cell line expressing HiBit-BRG1 and LgBit; for Dmax: read-out: BRG1 HiBit Degradation Maximum (%)
T1 construct: expressed in transfected cells
Summary of the method: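 Seed 5000 HeLa HiBit-BRG1/LgBit cells per well; treat 24 h; equilibrate 15 min at room temperature; add Nano-Glo HiBiT lytic reagent, shake 10 min, read luminescence. Percent degradation is scaled between DMSO and 2 μM reference degrader wells.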

HiBit-BRM fusion protein = target: T2, HiBit-BRM fusion protein (Homo sapiens, UniProt P51531); experiment: HiBiT-BRM cell-based degradation assay (Nano-Glo HiBiT Lytic Detection, 24 h); settings: HeLa cell line expressing HiBiT-BRM; for DC50: read-out: BRM HiBit Degradation IC50
T2 construct: expressed in transfected cells
Summary of the method: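 HeLa cells stably expressing HiBiT-BRM were dosed with compounds (10-point 3-fold dilutions, 30 μM final top dose, duplicate) for 24 h. HiBiT signal was read by lytic LgBiT complementation luminescence. Percent degradation was normalised to DMSO (high control) and 2 μM of a reference BRM/BRG1 degrader (low control).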

[2] = read-out: BRMG1 HiBit Degradation IC50

T2 sequence (P51531 whole entry, the tested form may be a part): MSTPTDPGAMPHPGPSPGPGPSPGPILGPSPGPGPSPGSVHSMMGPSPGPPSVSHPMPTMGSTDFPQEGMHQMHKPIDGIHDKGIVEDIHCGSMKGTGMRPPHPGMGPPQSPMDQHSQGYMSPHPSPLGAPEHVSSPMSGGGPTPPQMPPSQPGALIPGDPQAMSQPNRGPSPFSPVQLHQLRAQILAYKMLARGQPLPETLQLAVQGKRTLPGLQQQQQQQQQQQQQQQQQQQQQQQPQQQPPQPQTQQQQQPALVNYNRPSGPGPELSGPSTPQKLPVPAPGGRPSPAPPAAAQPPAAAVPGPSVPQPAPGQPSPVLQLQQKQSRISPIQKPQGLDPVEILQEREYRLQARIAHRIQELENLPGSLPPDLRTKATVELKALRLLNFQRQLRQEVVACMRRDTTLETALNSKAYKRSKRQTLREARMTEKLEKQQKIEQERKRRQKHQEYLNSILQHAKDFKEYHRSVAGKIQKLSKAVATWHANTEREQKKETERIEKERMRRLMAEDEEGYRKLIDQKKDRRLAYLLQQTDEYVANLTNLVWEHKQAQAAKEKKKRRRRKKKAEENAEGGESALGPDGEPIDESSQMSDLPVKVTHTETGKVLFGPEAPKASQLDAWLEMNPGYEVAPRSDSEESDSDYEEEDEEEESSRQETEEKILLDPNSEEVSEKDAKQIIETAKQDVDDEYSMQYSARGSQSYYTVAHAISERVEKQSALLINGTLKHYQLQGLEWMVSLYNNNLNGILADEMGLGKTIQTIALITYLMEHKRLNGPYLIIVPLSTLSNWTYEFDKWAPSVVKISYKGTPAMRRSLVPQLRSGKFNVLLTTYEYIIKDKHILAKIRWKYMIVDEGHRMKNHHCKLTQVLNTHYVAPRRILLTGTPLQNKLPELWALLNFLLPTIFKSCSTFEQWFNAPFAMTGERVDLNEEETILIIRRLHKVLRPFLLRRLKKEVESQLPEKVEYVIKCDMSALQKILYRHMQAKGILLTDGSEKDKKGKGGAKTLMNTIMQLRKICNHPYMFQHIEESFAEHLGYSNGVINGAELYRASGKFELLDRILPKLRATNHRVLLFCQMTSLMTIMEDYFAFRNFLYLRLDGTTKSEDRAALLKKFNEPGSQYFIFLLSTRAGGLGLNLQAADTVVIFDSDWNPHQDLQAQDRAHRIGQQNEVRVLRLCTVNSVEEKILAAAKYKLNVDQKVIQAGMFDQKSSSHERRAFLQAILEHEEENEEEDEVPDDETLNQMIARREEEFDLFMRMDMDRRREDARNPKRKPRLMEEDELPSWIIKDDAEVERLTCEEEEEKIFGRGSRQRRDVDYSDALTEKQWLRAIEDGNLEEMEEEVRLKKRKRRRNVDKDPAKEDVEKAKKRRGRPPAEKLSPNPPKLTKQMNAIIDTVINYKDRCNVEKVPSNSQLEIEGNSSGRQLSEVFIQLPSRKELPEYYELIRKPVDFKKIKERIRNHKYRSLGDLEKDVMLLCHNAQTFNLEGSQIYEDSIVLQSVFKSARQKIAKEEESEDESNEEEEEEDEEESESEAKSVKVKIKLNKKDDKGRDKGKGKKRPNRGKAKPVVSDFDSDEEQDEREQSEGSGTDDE
T1 sequence (P51532 whole entry, the tested form may be a part): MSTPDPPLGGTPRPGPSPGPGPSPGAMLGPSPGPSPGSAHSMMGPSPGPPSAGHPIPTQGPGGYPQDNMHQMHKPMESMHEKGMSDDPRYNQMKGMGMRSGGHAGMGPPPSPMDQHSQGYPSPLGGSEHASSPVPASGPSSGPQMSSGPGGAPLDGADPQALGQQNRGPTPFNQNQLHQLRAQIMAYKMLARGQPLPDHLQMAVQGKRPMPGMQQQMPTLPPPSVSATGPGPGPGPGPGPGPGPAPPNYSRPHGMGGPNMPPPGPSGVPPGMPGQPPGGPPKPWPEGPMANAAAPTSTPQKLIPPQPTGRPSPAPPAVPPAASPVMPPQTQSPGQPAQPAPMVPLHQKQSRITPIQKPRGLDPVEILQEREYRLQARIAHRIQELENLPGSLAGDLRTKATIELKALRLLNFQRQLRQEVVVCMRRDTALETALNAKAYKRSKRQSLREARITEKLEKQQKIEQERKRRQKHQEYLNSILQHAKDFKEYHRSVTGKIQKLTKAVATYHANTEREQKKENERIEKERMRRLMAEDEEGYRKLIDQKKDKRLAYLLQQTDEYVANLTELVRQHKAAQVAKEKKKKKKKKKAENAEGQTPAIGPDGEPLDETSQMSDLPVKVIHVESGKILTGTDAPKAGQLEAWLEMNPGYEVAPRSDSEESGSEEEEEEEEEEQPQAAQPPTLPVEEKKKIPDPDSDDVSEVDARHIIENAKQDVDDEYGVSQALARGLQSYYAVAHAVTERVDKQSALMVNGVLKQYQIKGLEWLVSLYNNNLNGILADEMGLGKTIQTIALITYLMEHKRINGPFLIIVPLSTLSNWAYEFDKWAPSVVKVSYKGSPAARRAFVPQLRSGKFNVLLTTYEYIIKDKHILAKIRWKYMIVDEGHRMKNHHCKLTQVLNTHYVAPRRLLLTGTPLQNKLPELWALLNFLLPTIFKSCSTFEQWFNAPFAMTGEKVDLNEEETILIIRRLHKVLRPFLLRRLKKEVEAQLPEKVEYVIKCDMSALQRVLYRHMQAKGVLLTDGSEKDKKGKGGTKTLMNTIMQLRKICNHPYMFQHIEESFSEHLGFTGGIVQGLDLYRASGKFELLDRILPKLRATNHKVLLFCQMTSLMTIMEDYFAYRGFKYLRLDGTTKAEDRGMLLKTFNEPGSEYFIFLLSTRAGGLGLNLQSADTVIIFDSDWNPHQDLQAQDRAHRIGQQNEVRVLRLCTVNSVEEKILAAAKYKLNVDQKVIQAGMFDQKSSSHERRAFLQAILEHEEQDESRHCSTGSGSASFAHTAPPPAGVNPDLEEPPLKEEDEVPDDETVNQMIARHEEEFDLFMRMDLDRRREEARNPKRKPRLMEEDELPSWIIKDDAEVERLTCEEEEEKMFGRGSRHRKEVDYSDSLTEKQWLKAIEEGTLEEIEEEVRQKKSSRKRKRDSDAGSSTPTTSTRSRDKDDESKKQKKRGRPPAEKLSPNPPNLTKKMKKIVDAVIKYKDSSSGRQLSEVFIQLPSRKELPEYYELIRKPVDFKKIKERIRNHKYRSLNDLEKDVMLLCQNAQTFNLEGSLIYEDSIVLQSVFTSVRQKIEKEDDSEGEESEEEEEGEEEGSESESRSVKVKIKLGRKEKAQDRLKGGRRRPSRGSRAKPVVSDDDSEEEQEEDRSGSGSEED

Row | Structure (SMILES) | Dmax [1] [%] | BRM HiBit Degradation Maximum (%) (HiBit-BRM fusion protein) | BRG1 HiBit Degradation Maximum (%) [1] | IC50 [1, 2] [nM] | IC50 (HiBit-BRM fusion protein) [nM] | DC50 [1, 2] [nM] | DC50 (HiBit-BRM fusion protein) [nM]
1 | Cc1ncsc1-c1ccc(CNC(=O)[C@@H]2C[C@@H](O)CN2C(=O)[C@@H](NC(=O)CCCCCCCCC(=O)N2CC(c3c[nH]c4nnc(-c5ccccc5O)cc34)C2)C(C)(C)C)cc1 [Compound 43, (2S,4R)-4-hydroxy-1-((S)-2-(10-(3-(3-(2-hydroxyphenyl)-7H-pyrrolo[2,3-c]pyridazin-5-yl)azetidin-1-yl)-10-oxodecanamido)-3,3-dimethylbutanoyl)-N-(4-(4-methylthiazol-5-yl)benzyl)pyrrolidine-2-carboxamide] | < 50 | C (“C” indicates maximum degradation < 50%) |  |  |  |  | 
2 | Cc1ncsc1-c1ccc(CNC(=O)[C@@H]2C[C@@H](O)CN2C(=O)[C@@H](NC(=O)CCCCCCCCCCCCC(=O)N2CC(c3c[nH]c4nnc(-c5ccccc5O)cc34)C2)C(C)(C)C)cc1 [Compound 44, (2S,4R)-4-hydroxy-1-((S)-2-(14-(3-(3-(2-hydroxyphenyl)-7H-pyrrolo[2,3-c]pyridazin-5-yl)azetidin-1-yl)-14-oxotetradecanamido)-3,3-dimethylbutanoyl)-N-(4-(4-methylthiazol-5-yl)benzyl)pyrrolidine-2-carboxamide] | < 50 | C (“C” indicates maximum degradation < 50%) |  |  |  |  | 
3 | Cc1ncsc1-c1ccc(CNC(=O)[C@@H]2C[C@@H](O)CN2C(=O)[C@@H](NC(=O)CCCCCCC(=O)N2CC(c3c[nH]c4nnc(-c5ccccc5O)cc34)C2)C(C)(C)C)cc1 [Compound 45, (2S,4R)-4-hydroxy-1-((S)-2-(8-(3-(3-(2-hydroxyphenyl)-7H-pyrrolo[2,3-c]pyridazin-5-yl)azetidin-1-yl)-8-oxooctanamido)-3,3-dimethylbutanoyl)-N-(4-(4-methylthiazol-5-yl)benzyl)pyrrolidine-2-carboxamide] | < 50 | C (“C” indicates maximum degradation < 50%) |  |  |  |  | 
4 | Cc1ncsc1-c1ccc(CNC(=O)[C@@H]2C[C@@H](O)CN2C(=O)[C@@H](NC(=O)CCCCCCCCCCC(=O)N2CC(c3c[nH]c4nnc(-c5ccccc5O)cc34)C2)C(C)(C)C)cc1 [Compound 46, (2S,4R)-4-hydroxy-1-((S)-2-(12-(3-(3-(2-hydroxyphenyl)-7H-pyrrolo[2,3-c]pyridazin-5-yl)azetidin-1-yl)-12-oxododecanamido)-3,3-dimethylbutanoyl)-N-(4-(4-methylthiazol-5-yl)benzyl)pyrrolidine-2-carboxamide] | < 50 | C (“C” indicates maximum degradation < 50%) |  |  |  |  | 
5 | Cc1ncsc1-c1ccc(CNC(=O)[C@@H]2C[C@@H](O)CN2C(=O)[C@@H](NC(=O)CCCCC(=O)N2CC(c3c[nH]c4nnc(-c5ccccc5O)cc34)C2)C(C)(C)C)cc1 [Compound 47, (2S,4R)-4-hydroxy-1-((S)-2-(6-(3-(3-(2-hydroxyphenyl)-7H-pyrrolo[2,3-c]pyridazin-5-yl)azetidin-1-yl)-6-oxohexanamido)-3,3-dimethylbutanoyl)-N-(4-(4-methylthiazol-5-yl)benzyl)pyrrolidine-2-carboxamide] | < 50 | C (“C” indicates maximum degradation < 50%) |  |  |  |  | 
6 | Cc1ncsc1-c1ccc([C@H](C)NC(=O)[C@@H]2C[C@@H](O)CN2C(=O)[C@@H](c2cc(N3CCN(C(=O)[C@H]4C[C@]5(Cc6cc(-c7ccccc7O)nnc6N5)C4)CC3)no2)C(C)C)cc1 [Compound 77, (2S,4R)-4-hydroxy-1-((R)-2-(3-(4-((1S,3r)-3′-(2-hydroxyphenyl)-5′,7′-dihydrospiro[cyclobutane-1,6′-pyrrolo[2,3-c]pyridazine]-3-carbonyl)piperazin-1-yl)isoxazol-5-yl)-3-methylbutanoyl)-N-((S)-1-(4-(4-methylthiazol-5-yl)phenyl)ethyl)pyrrolidine-2-carboxamide] |  | A (“A” indicates maximum degradation ≥ 75%) | A (“A” indicates maximum degradation ≥ 75%) | > 100 | > 10 |  | 
7 | Cc1ncsc1-c1ccc([C@H](C)NC(=O)[C@@H]2C[C@@H](O)CN2C(=O)[C@@H](c2cc(N3C[C@H]4C[C@@H]3CN4C(=O)[C@@H]3CCc4[nH]c5nnc(-c6ccccc6O)cc5c4C3)no2)C(C)C)cc1 [Compound 101, (2S,4R)-4-hydroxy-1-((R)-2-(3-((1R,4R)-5-((R)-3-(2-hydroxyphenyl)-6,7,8,9-tetrahydro-5H-pyridazino[3,4-b]indole-6-carbonyl)-2,5-diazabicyclo[2.2.1]heptan-2-yl)isoxazol-5-yl)-3-methylbutanoyl)-N-((S)-1-(4-(4-methylthiazol-5-yl)phenyl)ethyl)pyrrolidine-2-carboxamide] | > 75 | A (“A” indicates maximum degradation ≥ 75%) |  |  |  | > 10 | < 10
8 | Cc1ncsc1-c1ccc([C@H](C)NC(=O)[C@@H]2C[C@@H](O)CN2C(=O)[C@@H](c2cc(OCC(=O)N(C)[C@H]3CCc4[nH]c5nnc(-c6ccccc6O)cc5c4C3)no2)C(C)C)cc1 [Compound 106, (2S,4R)-4-hydroxy-1-((R)-2-(3-(2-(((S)-3-(2-hydroxyphenyl)-6,7,8,9-tetrahydro-5H-pyridazino[3,4-b]indol-6-yl)(methyl)amino)-2-oxoethoxy)isoxazol-5-yl)-3-methylbutanoyl)-N-((S)-1-(4-(4-methylthiazol-5-yl)phenyl)ethyl)pyrrolidine-2-carboxamide] | < 50 | A (“A” indicates maximum degradation ≥ 75%) |  |  |  |  | > 10
9 | Cc1ncsc1-c1ccc([C@H](C)NC(=O)[C@@H]2C[C@@H](O)CN2C(=O)[C@@H](c2cc(N3CCC(CN(C)[C@H]4CCc5[nH]c6nnc(-c7ccccc7O)cc6c5C4)CC3)no2)C(C)C)cc1 [Compound 107, (2S,4R)-4-hydroxy-1-((R)-2-(3-(4-((((S)-3-(2-hydroxyphenyl)-6,7,8,9-tetrahydro-5H-pyridazino[3,4-b]indol-6-yl)(methyl)amino)methyl)piperidin-1-yl)isoxazol-5-yl)-3-methylbutanoyl)-N-((S)-1-(4-(4-methylthiazol-5-yl)phenyl)ethyl)pyrrolidine-2-carboxamide] | > 75 | A (“A” indicates maximum degradation ≥ 75%) |  |  |  | > 10 | > 10
10 | Cc1ncsc1-c1ccc([C@H](C)NC(=O)[C@@H]2C[C@@H](O)CN2C(=O)[C@@H](c2cc(OCCN3C[C@H]4C[C@@H](c5c(C)[nH]c6nnc(-c7ccccc7O)cc56)C[C@H]4C3)no2)C(C)C)cc1 [Compound 109, (2S,4R)-4-hydroxy-1-((R)-2-(3-(2-((3aR,5R,6aS)-5-(3-(2-hydroxyphenyl)-6-methyl-7H-pyrrolo [2,3-c]pyridazin-5-yl)hexahydrocyclopenta[c]pyrrol-2(1H)-yl)ethoxy)isoxazol-5-yl)-3-methylbutanoyl)-N-((S)-1-(4-(4-methylthiazol-5-yl)phenyl)ethyl)pyrrolidine-2-carboxamide] |  | A (“A” indicates maximum degradation ≥ 75%) | C (“C” indicates maximum degradation < 50%) |  | > 10 |  | 
11 | Cc1ncsc1-c1ccc([C@H](C)NC(=O)[C@@H]2C[C@@H](O)CN2C(=O)[C@@H](c2cc(OCCN3CC(c4cn(C(F)F)c5nnc(-c6ccccc6O)cc45)C3)no2)C(C)C)cc1 [Compound 116, (2S,4R)-1-((R)-2-(3-(2-(3-(7-(difluoromethyl)-3-(2-hydroxyphenyl)-7H-pyrrolo[2,3-c]pyridazin-5-yl)azetidin-1-yl)ethoxy)isoxazol-5-yl)-3-methylbutanoyl)-4-hydroxy-N-((S)-1-(4-(4-methylthiazol-5-yl)phenyl)ethyl)pyrrolidine-2-carboxamide] | < 50 | C (“C” indicates maximum degradation < 50%) |  |  |  |  | 
12 | Cc1ncsc1-c1ccc([C@H](C)NC(=O)[C@@H]2C[C@@H](O)CN2C(=O)[C@@H](c2cc(OCCN3CC(C4(C)Cc5cc(-c6ccccc6O)nnc5N4)C3)no2)C(C)C)cc1 (stereo partly drawn) [Compound 122, (2S,4R)-4-hydroxy-1-((2R)-2-(3-(2-(3-(3-(2-hydroxyphenyl)-6-methyl-6,7-dihydro-5H-pyrrolo[2,3-c]pyridazin-6-yl)azetidin-1-yl)ethoxy)isoxazol-5-yl)-3-methylbutanoyl)-N-((S)-1-(4-(4-methylthiazol-5-yl)phenyl)ethyl)pyrrolidine-2-carboxamide] | > 50 | C (“C” indicates maximum degradation < 50%) |  |  |  |  | 
13 | Cc1ncsc1-c1ccc([C@H](C)NC(=O)[C@@H]2C[C@@H](O)CN2C(=O)[C@@H](c2cc(OCCN3Cc4[nH]c5nnc(-c6ccccc6O)cc5c4C3)no2)C(C)C)cc1 [Compound 123, (2S,4R)-4-hydroxy-1-[(2R)-2-(3-{2-[11-(2-hydroxyphenyl)-4,7,9,10-tetraazatricyclo[6.4.0.0^{2,6}]dodeca-1(12),2(6),8,10-tetraen-4-yl]ethoxy}-1,2-oxazol-5-yl)-3-methylbutanoyl]-N-[(1S)-1-[4-(4-methyl-1,3-thiazol-5-yl)phenyl]ethyl]pyrrolidine-2-carboxamide] | < 50 | A (“A” indicates maximum degradation ≥ 75%) |  |  |  |  | > 100
